Data reported in US20040224995A1 (University of North Texas Health Science Center at Fort …, priority 2003, published 2004).

Tested on: HT-22 cells
Assay: HT-22 cell viability during glutamate exposure (calcein AM assay)
Assay type: cell-based
Settings: for neuroprotection after withdrawal of compound-containing medium: 24 h preincubation, medium washed away, then glutamate (15 mM); for concentration at which toxicity was observed: HT-22, glutamate experiments; for neuroprotection against glutamate insult (cell viability): HT-22, 24 h preincubation before glutamate
Excerpt: Although not wanting to be bound by theory, the toxicity of glutamate in HT-22 (32) and C6 glioma (33) cell lines is mediated through oxidative stress. HT-22 cells lack ionotropic N-methyl-D-aspartate (“NMDA”) glutamate receptors, and the glutamate-induced cell death appears to occur via a slow onset oxidative stress (32,34,35). Glutamate blocks cystine uptake by inhibiting the glutamate/cystine antiporter in both HT-22 (32) and C6 glioma (33) cell lines. Since cysteine is required for glutathione (“GSH”) synthesis, the intracellular concentration of GSH decreases as a consequence. BSO depletes intracellular glutathione by inhibiting γ-glutamylcysteine synthetase, the rate-limiting enzyme in glutathione synthesis (33). […] Troglitazone further protected HT-22 (FIG. 14) and RGC-5 (FIG. 15) against BSO. The cell viability was taken at time points around about 14 to 24 hours post-insult time. In some of the experiments, the viability of cells was determined using 2.5 μM calcein AM assay in phosphate-buffered saline (PBS 1×). After 25 minutes of incubation, live cells were distinguished by the presence of intracellular esterase activity, which cleaves the calcein AM dye, producing a bright green fluorescence, as shown in FIG. 22. Viability was measured in Relative Fluorescent Units (“RFU”), and expressed as percentage of vehicle-treated control values.
15d-PGJ2 and two TZD's (e.g. troglitazone and ciglitazone) were tested for their ability to protect HT-22 cells against glutamate toxicity. […] HT-22 cells were treated with 15-dPGJ2 twenty-four hours prior to a glutamate insult (15 mM). […] The data of FIG. 24 was quantified using the calcein AM assay (see FIG. 22). Results are expressed in % survival of the control (non-glutamate-treated) cultures. DMSO received the vehicle only for 15d-PGJ2. Shown are mean±SEM for 6. The asterisk (“*”) indicates p<0.05 vs. respective control.
In order to conduct these experiments, the following compounds: PGA1; PGA2; PGJ2; Δ^12PGJ2; and 15d-PGJ2 were ordered from Biomol, Plymouth Meeting, Pa. HT-22, an immortalized mouse hippocampal cell line, C6 rat glioma, RGC-5 retinal ganglion cells were used. Cells were grown to confluence in DMEM media, and supplemented with 10% charcoal/dextran-treated fetal bovine serum (“FBS”), and […] gentamycin at 37° C. under 95% air, 5% CO2. HT-22, C6, and RGC-5 cells were plated at a density of 50,000, 35,000, and 10,000 cells/ml, respectively, in 96-well plates. Wells were pre-treated with cyclopentenone PGs at various times prior to being subjected to glutamate, hydrogen peroxide (H2O2), or BSO insults.
The WY-14643, Ciglitazone, Troglitazone, 9-cis retinoic acid, and 15d-PGJ2 compounds were purchased from Biomol (Plymouth Meeting, Pa.). L-165041 and L-783483 were kindly provided by Merck Laboratories. The cell lines used were HT-22, an immortalized mouse hippocampal cell line, and SK—N—SH, a human neuroblastoma cell line. The HT-22 cells were obtained from David Schubert (Salk Institute, San Diego, Calif.). The HT-22 line was originally selected from HT-4 cells based on glutamate sensitivity. HT-4 cells were immortalized from primary hippocampal neurons using a temperature-sensitive SV-40 T antigen (Morimoto and Koshland, 1990). SK—N—SH were obtained from ATCC (Manassas, Va.). HT-22 and SK—N—SH cells were grown to confluence in DMEM and RPMI-1640 media, respectively, and supplemented with 10% charcoal/dextran-treated fetal bovine serum (FBS), and 5 mg/ml gentamycin at 37° C. under 95% air, 5% CO2. HT-22 cells were plated at a density of 50,000 cells/ml (5,000 cells/well), and SK—N—SH were plated at a density of 120,000 to 150,000 cells/ml (12,000 to 15,000 cells/well) in 96-well plates. In most studies, wells were pre-treated with PPAR ligands over a wide dose range at various times prior to being subjected to either glutamate, hydrogen peroxide (H2O2), or serum deprivation insults. In some studies, the insults were applied prior to the addition of the PPAR ligand. […]

Row | SMILES | neuroprotection after withdrawal of compound-containing medium | concentration at which toxicity was observed [µM] | neuroprotection against glutamate insult (cell viability) | protection versus time of administration prior to glutamate insult (administered 0 to 10 hours prior to insult) | time post glutamate insult up to which neuroprotective effects remained unaltered (post-treatment 0 to 10 hours after glutamate) | protection at 8 and 10 hours post glutamate insult (post-treatment, extent of protection decreased) | neuroprotective effect of prostaglandins against glutamate toxicity (added 24 h before glutamate (15 mM), viability 15 h later) | neuroprotection when added with or after glutamate (added at same time as glutamate or up to ten hours thereafter) | exposure time required to achieve significant neuroprotection (preincubation before glutamate (15 mM), 5 μM)
1 | Cc1c(C)c2c(c(C)c1O)CCC(C)(COc1ccc(CC3SC(=O)NC3=O)cc1)O2 (stereo not drawn) [troglitazone] | loss of neuroprotection | ≥ 20 | dose-dependent protection | equally protective | up to 6 hours | still significantly protected |  |  | 
2 | CCCCC/C=C/C=C1/C(=O)C=C[C@@H]1C/C=C\CCCC(=O)O [15d-PGJ2, 15-deoxy-Δ^12,14-PGJ2] | protected in a dose dependent manner | ≥ 10 | dose-dependent protection |  |  |  | potent neuroprotective effect | failed to display any neuroprotective effects | four to six
